US9120770B2, “Substituted pyridine and pyrazine compounds as PDE4 inhibitors” (DART NEUROSCIENCE (CAYMAN) LTD., priority 2013, dated 2015)

biological target: PDE4D3 (Homo sapiens, UniProt Q08499)
Sequence (Q08499 1-673 isoform Q08499-2): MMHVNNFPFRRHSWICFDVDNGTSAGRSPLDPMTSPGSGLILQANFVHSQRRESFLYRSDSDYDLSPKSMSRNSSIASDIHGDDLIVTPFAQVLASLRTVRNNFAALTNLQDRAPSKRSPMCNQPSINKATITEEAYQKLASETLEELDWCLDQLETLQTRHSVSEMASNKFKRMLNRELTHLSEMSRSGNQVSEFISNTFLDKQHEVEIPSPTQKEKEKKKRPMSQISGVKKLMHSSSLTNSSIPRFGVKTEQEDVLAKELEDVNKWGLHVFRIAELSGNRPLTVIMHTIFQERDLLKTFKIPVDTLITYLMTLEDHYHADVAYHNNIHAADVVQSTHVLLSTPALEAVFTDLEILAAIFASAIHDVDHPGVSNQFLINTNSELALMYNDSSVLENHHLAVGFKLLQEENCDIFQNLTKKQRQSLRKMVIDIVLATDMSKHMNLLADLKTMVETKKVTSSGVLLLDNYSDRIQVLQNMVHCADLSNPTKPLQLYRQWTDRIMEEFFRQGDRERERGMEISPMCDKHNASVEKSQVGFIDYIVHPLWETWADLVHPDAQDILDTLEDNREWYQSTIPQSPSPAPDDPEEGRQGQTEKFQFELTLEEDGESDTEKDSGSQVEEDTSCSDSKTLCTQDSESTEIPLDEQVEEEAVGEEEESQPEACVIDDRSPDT

Question: For CCOc1ncc(Cn2ncnc2CO)nc1-c1cccc(OC(F)F)c1 [Example 209, [1-({6-[3-(Difluoromethoxy)phenyl]-5-ethoxypyrazin-2-yl}methyl)-1H-1,2,4-triazol-5-yl]methanol], which EC50 is on record?
Answer: 1000 to 10000 nM

Question: With COc1ncc(Cn2ncnc2CO)nc1-c1cccc(Cl)c1 [Example 210, (1-{[6-(3-Chlorophenyl)-5-methoxypyrazin-2-yl]methyl}-1H-1,2,4-triazol-5-yl)methanol] as the molecule, how does the EC50 read?
Answer: 1000 to 10000 nM

Question: With COc1ncc(Cn2cnc(CO)n2)nc1-c1cccc(OC(F)F)c1 [Example 211, [1-({6-[3-(Difluoromethoxy)phenyl]-5-methoxypyrazin-2-yl}-methyl)-1H-1,2,4-triazol-3-yl]methanol] as the molecule, how does the EC50 read?
Answer: 100 to 1000 nM

Question: Which EC50 does the source give for CCOc1ncc(Cn2cnc(CO)n2)nc1-c1cccc(Cl)c1 [Example 212, (1-{[6-(3-Chlorophenyl)-5-ethoxypyrazin-2-yl]methyl}-1H-1,2,4-triazol-3-yl)methanol] here?
Answer: 100 to 1000 nM

Question: COc1ncn(Cc2cnc(OC)c(-c3cccc(Cl)c3)c2)n1 [Example 213, 3-(3-Chlorophenyl)-2-methoxy-5-[(3-methoxy-1H-1,2,4-triazol-1-yl)methyl]pyridine] was tested. Which EC50 did it give?
Answer: 100 to 1000 nM

Question: With COc1ncn(Cc2cnc(OC(F)F)c(-c3cccc(Cl)c3)c2)n1 [Example 214, 3-(3-Chlorophenyl)-2-(difluoromethoxy)-5-[(3-methoxy-1H-1,2,4-triazol-1-yl)methyl]pyridine] as the molecule, how does the EC50 read?
Answer: 100 to 1000 nM

Question: COc1ncnn1Cc1cnc(OC(F)F)c(-c2cccc(Cl)c2)c1 [Example 215, 3-(3-Chlorophenyl)-2-(difluoromethoxy)-5-[(5-methoxy-1H-1,2,4-triazol-1-yl)methyl]pyridine] was tested. Which EC50 did it give?
Answer: 1000 to 10000 nM

Question: How did the EC50 turn out when CCOc1ncn(Cc2cnc(OC(F)F)c(-c3cccc(Cl)c3)c2)n1 [Example 216, 3-(3-Chlorophenyl)-2-(difluoromethoxy)-5-[(3-ethoxy-1H-1,2,4-triazol-1-yl)methyl]pyridine] was run?
Answer: 100 to 1000 nM

Question: For COc1ncc(Cn2cnc(N)n2)cc1-c1cccc(OC(F)F)c1 [Example 217, 1-({5-[3-(Difluoromethoxy)phenyl]-6-methoxypyridin-3-yl}methyl)-1H-1,2,4-triazol-3-amine], which EC50 is on record?
Answer: < 100 nM

Question: For COc1ncc(Cn2cnc(N)n2)cc1-c1cccc(Cl)c1 [Example 218, 1-{[5-(3-Chlorophenyl)-6-methoxypyridin-3-yl]methyl}-1H-1,2,4-triazol-3-amine], which EC50 is on record?
Answer: 100 to 1000 nM

Question: For Nc1ncn(Cc2cnc(OC(F)F)c(-c3cccc(Cl)c3)c2)n1 [Example 219, 1-{[5-(3-Chlorophenyl)-6-(difluoromethoxy)pyridin-3-yl]methyl}-1H-1,2,4-triazol-3-amine], which EC50 is on record?
Answer: < 100 nM

Question: Which EC50 does the source give for COc1ncc(Cn2cnc(N)n2)cc1-c1cccc(F)c1 [Example 220, 1-{[5-(3-Fluorophenyl)-6-methoxypyridin-3-yl]methyl}-1H-1,2,4-triazol-3-amine] here?
Answer: 100 to 1000 nM

Question: How did the EC50 turn out when COc1cccc(-c2cc(Cn3cnc(N)n3)cnc2OC)c1 [Example 221, 1-{[6-Methoxy-5-(3-methoxyphenyl)pyridin-3-yl]methyl}-1H-1,2,4-triazol-3-amine] was run?
Answer: 100 to 1000 nM

Question: With COc1ncc(Cn2cnc(N)n2)cc1-c1cccc(C)c1 [Example 222, 1-{[6-Methoxy-5-(3-methylphenyl)pyridin-3-yl]methyl}-1H-1,2,4-triazol-3-amine] as the molecule, how does the EC50 read?
Answer: 100 to 1000 nM

Question: For COc1ncc(Cn2cnc(N)n2)cc1-c1cccc(C#N)c1 [Example 223, 3-{5-[(3-Amino-1H-1,2,4-triazol-1-yl)methyl]-2-methoxypyridin-3-yl}benzonitrile], which EC50 is on record?
Answer: 100 to 1000 nM

Question: How did the EC50 turn out when CCOc1cccc(-c2cc(Cn3cnc(N)n3)cnc2OC)c1 [Example 224, 1-{[5-(3-Ethoxyphenyl)-6-methoxypyridin-3-yl]methyl}-1H-1,2,4-triazol-3-amine] was run?
Answer: 100 to 1000 nM

Question: Which EC50 does the source give for COc1ncc(Cn2cnc(N)n2)cc1-c1cccc(OC2CC2)c1 [Example 225, 1-{[5-(3-Cyclopropoxyphenyl)-6-methoxypyridin-3-yl]methyl}-1H-1,2,4-triazol-3-amine] here?
Answer: 1000 to 10000 nM

Question: CCOc1ncc(Cn2cnc(N)n2)cc1-c1cccc(OC(F)F)c1 [Example 226, 1-({5-[3-(Difluoromethoxy)phenyl]-6-ethoxypyridin-3-yl}methyl)-1H-1,2,4-triazol-3-amine] was tested. Which EC50 did it give?
Answer: < 100 nM

Question: COc1cccc(-c2cc(Cn3cnc(N)n3)cnc2OC(F)F)c1 [Example 227, 1-{[6-(Difluoromethoxy)-5-(3-methoxyphenyl)pyridin-3-yl]methyl}-1H-1,2,4-triazol-3-amine] was tested. Which EC50 did it give?
Answer: 100 to 1000 nM

Question: For COc1ncc(Cn2cnc(N)n2)cc1-c1cncc(Cl)c1 [Example 228, 1-{[5-(5-Chloropyridin-3-yl)-6-methoxypyridin-3-yl]methyl}-1H-1,2,4-triazol-3-amine], which EC50 is on record?
Answer: 1000 to 10000 nM

Question: Which EC50 does the source give for COc1ncc(Cn2cnc(N)n2)cc1-c1ccnc(OC(F)F)c1 [Example 229, 1-({5-[2-(Difluoromethoxy)pyridin-4-yl]-6-methoxypyridin-3-yl}methyl)-1H-1,2,4-triazol-3-amine] here?
Answer: < 100 nM

Question: Which EC50 does the source give for CCOc1ncc(Cn2cnc(N)n2)cc1-c1ccnc(OC(F)F)c1 [Example 230, 1-({5-[2-(Difluoromethoxy)pyridin-4-yl]-6-ethoxypyridin-3-yl}methyl)-1H-1,2,4-triazol-3-amine] here?
Answer: < 100 nM

Question: For Nc1ncn(Cc2cnc(OC(F)F)c(-c3ccnc(OC(F)F)c3)c2)n1 [Example 231, 1-{[6-(Difluoromethoxy)-5-[2-(difluoromethoxy)pyridin-4-yl]pyridin-3-yl]methyl}-1H-1,2,4-triazol-3-amine], which EC50 is on record?
Answer: 100 to 1000 nM

Question: Which EC50 does the source give for COc1ncc(Cn2ccc(N)n2)cc1-c1cccc(OC(F)F)c1 [Example 232, 1-({5-[3-(Difluoromethoxy)phenyl]-6-methoxypyridin-3-yl}methyl)-1H-pyrazol-3-amine] here?
Answer: < 100 nM

Question: For COc1ncc(Cn2nccc2N)cc1-c1cccc(OC(F)F)c1 [Example 233, 1-({5-[3-(Difluoromethoxy)phenyl]-6-methoxypyridin-3-yl}methyl)-1H-pyrazol-5-amine], which EC50 is on record?
Answer: 100 to 1000 nM

Question: Which EC50 does the source give for CCOc1ncc(Cn2cc(Cl)c(N)n2)cc1-c1cccc(Cl)c1 [Example 234, 4-Chloro-1-{[5-(3-chlorophenyl)-6-ethoxypyridin-3-yl]methyl}-1H-pyrazol-3-amine] here?
Answer: 100 to 1000 nM

Question: How did the EC50 turn out when CCOc1ncc(Cn2ncc(Cl)c2N)cc1-c1cccc(Cl)c1 [Example 235, 4-Chloro-1-{[5-(3-chlorophenyl)-6-ethoxypyridin-3-yl]methyl}-1H-pyrazol-5-amine] was run?
Answer: 1000 to 10000 nM

Question: COc1ncc(Cn2cc(N)cn2)nc1-c1cccc(Cl)c1 [Example 236, 1-{[6-(3-Chlorophenyl)-5-methoxypyrazin-2-yl]methyl}-1H-pyrazol-4-amine] was tested. Which EC50 did it give?
Answer: > 10000 nM

Question: For CCOc1ncc(Cn2cnc(N)n2)nc1-c1cccc(OC(F)F)c1 [Example 237, 1-((6-(3-(Difluoromethoxy)phenyl)-5-ethoxypyrazin-2-yl)methyl)-1H-1,2,4-triazol-3-amine], which EC50 is on record?
Answer: 1000 to 10000 nM

Question: CNc1ncn(Cc2cnc(OC(F)F)c(-c3cccc(Cl)c3)c2)n1 [Example 238, 1-{[5-(3-Chlorophenyl)-6-(difluoromethoxy)pyridin-3-yl]methyl}-N-methyl 1H-1,2,4-triazol-3-amine] was tested. Which EC50 did it give?
Answer: 100 to 1000 nM

Question: With CN(C)c1ncn(Cc2cnc(OC(F)F)c(-c3cccc(Cl)c3)c2)n1 [Example 239, 1-{[5-(3-Chlorophenyl)-6-(difluoromethoxy)pyridin-3-yl]methyl}-N,N-dimethyl-1H-1,2,4-triazol-3-amine] as the molecule, how does the EC50 read?
Answer: 100 to 1000 nM

Question: How did the EC50 turn out when NCc1ncn(Cc2cnc(OC(F)F)c(-c3cccc(Cl)c3)c2)n1 [Example 240, (1-{[5-(3-Chlorophenyl)-6-(difluoromethoxy)pyridin-3-yl]methyl}-1H-1,2,4-triazol-3-yl)methanamine] was run?
Answer: 1000 to 10000 nM

Question: For COc1ncc(Cn2cnc(C(N)=O)n2)cc1-c1cccc(Cl)c1 [Example 241, 1-{[5-(3-Chlorophenyl)-6-methoxypyridin-3-yl]methyl}-1H-1,2,4-triazole-3-carboxamide], which EC50 is on record?
Answer: 1000 to 10000 nM

Question: How did the EC50 turn out when COc1ncc(Cn2cncn2)cc1-c1cn[nH]c1 [Example 242, 2-Methoxy-3-(1H-pyrazol-4-yl)-5-(1H-1,2,4-triazol-1-ylmethyl)pyridine] was run?
Answer: > 10000 nM

Question: With COc1ncc(Cc2ccc(C(=O)NC3COC3)cc2)cc1-c1cccc(Cl)c1 [Example 243, 4-{[5-(3-Chlorophenyl)-6-methoxypyridin-3-yl]methyl}-N-(oxetan-3-yl)benzamide] as the molecule, how does the EC50 read?
Answer: 1000 to 10000 nM

Question: CNC(=O)c1ccc(Cc2cnc(OC(F)F)c(-c3cccc(Cl)c3)c2)cn1 [Example 244, 5-{[5-(3-Chlorophenyl)-6-(difluoromethoxy)pyridin-3-yl]methyl}-N-methylpyridine-2-carboxamide] was tested. Which EC50 did it give?
Answer: 100 to 1000 nM

Question: Which EC50 does the source give for NC(=O)C1(c2ccc(Cc3cnc(OC(F)F)c(-c4cccc(Cl)c4)c3)cc2)CC1 [Example 245, 1-(4-{[5-(3-Chlorophenyl)-6-(difluoromethoxy)pyridin-3-yl]methyl}phenyl)cyclopropane-1-carboxamide] here?
Answer: 100 to 1000 nM

Question: NC(=O)Cc1ccc(Cc2cnc(OC(F)F)c(-c3cccc(Cl)c3)c2)cc1 [Example 246, 2-(4-{[5-(3-Chlorophenyl)-6-(difluoromethoxy)pyridin-3-yl]methyl}phenyl)acetamide] was tested. Which EC50 did it give?
Answer: < 100 nM

Question: For COc1ncc(Cn2cnc(C(C)(C)O)n2)cc1-c1cccc(Cl)c1 [Example 247, 2-(1-{[5-(3-Chlorophenyl)-6-methoxypyridin-3-yl]methyl}-1H-1,2,4-triazol-3-yl)propan-2-ol], which EC50 is on record?
Answer: 1000 to 10000 nM

Question: COc1ncc(Cn2cncn2)cc1-c1cnn(C)c1 [Example 248, 2-Methoxy-3-(1-methyl-1H-pyrazol-4-yl)-5-(1H-1,2,4-triazol-1-ylmethyl)pyridine] was tested. Which EC50 did it give?
Answer: 1000 to 10000 nM

Question: Which EC50 does the source give for COc1ncc(Cn2ncnc2C(C)(C)O)cc1-c1cccc(Cl)c1 [Example 249, 2-(1-{[5-(3-Chlorophenyl)-6-methoxypyridin-3-yl]methyl}-1H-1,2,4-triazol-5-yl)propan-2-ol] here?
Answer: > 10000 nM

Question: With COc1ncc(Cc2ccc(C(C)(C)O)cc2)cc1-c1cccc(Cl)c1 [Example 250, 2-(4-{[5-(3-Chlorophenyl)-6-methoxypyridin-3-yl]methyl}phenyl)propan-2-ol] as the molecule, how does the EC50 read?
Answer: 100 to 1000 nM

Question: COc1ncc(Cc2ccc(C(C)(C)O)nc2)cc1-c1cccc(Cl)c1 [Example 251, 2-(5-{[5-(3-Chlorophenyl)-6-methoxypyridin-3-yl]methyl}pyridin-2-yl)propan-2-ol] was tested. Which EC50 did it give?
Answer: 100 to 1000 nM
